Measured values as given in patent US9067190B2, “Method for loading amphiphile particles with active agents” (CAMURUS AB, priority 2003, dated 2015).

How the values were obtained:
[1] = Effect of heat treatment on carrier-bound fraction of octreotide (loading system 3); format: physicochemical; conditions: 200 μg/ml octreotide, 5% amphiphile analogue of loading system 3
Protocol: Octreotide at a concentration of 200 μg/ml was added to 5% amphiphile analogues of loading system 3 (water content 95%). One set of samples were equilibrated at room temperature for 1 day, while another set was autoclaved at 125° C. for 20 minutes. The ocreotide concentration was determined by HPLC using a size exclusion column coupled to a UV detector.

[2] = Higher loading of progesterone by heat treatment (GMO/oleic acid/Lutrol F127 cubic particles); format: physicochemical
Protocol: Pre-formulations were prepared, including the fatty acid oleic acid, by the following method. • a) An initial melt was prepared containing GMO (85.5%), oleic acid (4.5%) and Lutrol F127 (10%). To 9 g of water under mechanical stirring was added 1 g of the molten mixture to form a coarse dispersion. • b) The coarse dispersion was homogenised with a microfluidiser at 345 bar. • c) The dispersion was heated to 120° C. for 20 minutes and cooled to room temperature.
The steroid hormone progesterone was incubated with the cubic particles formed in steps a) to c), at room temperature. The equilibrium loading level was 3% by weight.
The above method was repeated by the active agent progesterone was included in the aqueous phase prior to the homogenisation and heat treatment steps. The loading level was again examined and established to be 18 wt %. The effect upon the particle size distribution was minimal.
The composition with 18 wt % progesterone generated above was stored at room temperature for 14 days.

SMILES | % bound octreotide ([1]; 1 day at room temperature) [%] | % bound octreotide ([1]; After Autoclavation 20 min (125° C.)) [%] | Effect upon the particle size distribution ([2]; heat treatment loading of progesterone) | Loading level ([2]; progesterone in aqueous phase prior to homogenisation and heat treatment (120° C., 20 minutes)) [wt %] | Equilibrium loading level ([2]; progesterone incubated with preformed cubic particles at room temperature) [% by weight]
C[C@@H](O)[C@@H]1NC(=O)[C@H](CCCCN)NC(=O)[C@@H](Cc2c[nH]c3ccccc23)NC(=O)[C@H](Cc2ccccc2)NC(=O)[C@@H](NC(=O)[C@H](N)Cc2ccccc2)CSSC[C@@H](C(=O)N[C@H](CO)[C@@H](C)O)NC1=O [octreotide] | 18.07 | 30.04 |  |  | 
CC(=O)[C@H]1CC[C@H]2[C@@H]3CCC4=CC(=O)CC[C@]4(C)[C@H]3CC[C@]12C [progesterone] |  |  | minimal | 18 | 3
